Results on 4 compounds are retold here after the Kinase Knowledgebase extract (Sharma et al. 2016).

In general, IC50 refers to the concentration needed to halve the response being measured. A low value points to greater potency in that assay.

The structures appear in SMILES notation.

PIK3CA (human), sequence (P42336 whole entry, looked up): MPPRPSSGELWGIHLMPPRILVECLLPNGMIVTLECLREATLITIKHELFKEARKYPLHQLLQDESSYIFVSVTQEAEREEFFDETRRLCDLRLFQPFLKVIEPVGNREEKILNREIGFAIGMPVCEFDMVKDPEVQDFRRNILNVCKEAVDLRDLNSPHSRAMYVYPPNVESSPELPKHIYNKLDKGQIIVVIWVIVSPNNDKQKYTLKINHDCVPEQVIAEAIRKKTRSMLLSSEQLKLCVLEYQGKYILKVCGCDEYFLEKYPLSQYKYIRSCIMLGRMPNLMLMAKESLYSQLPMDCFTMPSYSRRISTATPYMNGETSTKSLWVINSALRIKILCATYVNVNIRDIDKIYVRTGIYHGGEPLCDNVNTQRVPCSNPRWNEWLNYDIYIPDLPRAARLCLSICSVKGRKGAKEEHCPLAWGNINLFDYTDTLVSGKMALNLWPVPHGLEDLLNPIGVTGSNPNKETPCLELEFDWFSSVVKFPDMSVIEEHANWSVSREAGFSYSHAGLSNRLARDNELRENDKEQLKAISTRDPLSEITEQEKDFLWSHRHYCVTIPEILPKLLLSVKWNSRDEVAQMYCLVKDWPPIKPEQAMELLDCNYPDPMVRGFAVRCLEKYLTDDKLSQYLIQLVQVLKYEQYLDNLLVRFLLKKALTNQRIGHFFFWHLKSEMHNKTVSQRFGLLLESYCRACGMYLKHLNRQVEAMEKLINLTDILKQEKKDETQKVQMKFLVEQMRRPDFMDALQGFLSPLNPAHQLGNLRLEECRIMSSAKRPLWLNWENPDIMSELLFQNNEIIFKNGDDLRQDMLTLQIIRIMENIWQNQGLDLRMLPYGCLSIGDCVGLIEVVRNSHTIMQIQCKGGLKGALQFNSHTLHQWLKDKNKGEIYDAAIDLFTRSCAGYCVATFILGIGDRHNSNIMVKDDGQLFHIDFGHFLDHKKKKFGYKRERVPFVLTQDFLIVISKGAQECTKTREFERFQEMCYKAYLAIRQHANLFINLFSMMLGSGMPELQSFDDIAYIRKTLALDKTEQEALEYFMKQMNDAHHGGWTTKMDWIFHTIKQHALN

This assay concerns the target PIK3CA (human) (UniProt P42336). Nature of the assay: Assessment of PIK3CA Kinase Activity.
Take `COC(=O)c1ccc2c(c1)OCCn1cc(-c3ncnn3C(C)C)nc1-2`: the IC50 was less than 1000 nM.

Compound `CC(C)n1ncnc1-c1cn2c(n1)-c1cnc(N3C[C@H](F)C[C@H]3C(N)=O)cc1OCC2` gave an IC50 of less than 1000 nM. The same measure for `NC(=O)[C@H](CO)Oc1ccc2c(c1)OCCn1cc(-c3ncnn3CC(F)(F)F)nc1-2`: less than 1000 nM; for `CC(C)n1ncnc1-c1cn2c(n1)-c1ccc(NCC(N)=O)cc1OCC2`: less than 1000 nM.
